Marks after values point to notes of the source that are not given here.
Legend:
[1] = ORAC (Oxygen Radical Absorbance Capacity) assay for lipophilic antioxidants; conditions: samples 0.25 μM, 7% RMCD, fluorescein probe
Protocol: (§1) An ORAC (Oxygen Radical Absorbance Capacity) assay was carried out using a Fluostar Optima plate reader (BMG Labtech, Durham, N.C.) equipped with an incubator and two injector pumps. A modified method for lipophilic antioxidants was followed, in which randomly methylated cyclodextrin (RMCD) was used as water solubility enhancer, as described by Huang et al, J. Agric. Food Chem., 2002, 50, 1815-1821. Trolox standards (6.25-50 μM) and samples (0.25 μM) were dissolved in acetone/water (1:1, v/v) containing 7% RMCD. Fluorescein and […] [2,2′-azobis(2-aminopropane)dihydrochloride] were used as the probe and radical generator, respectively. Twenty microliters of trolox standard or test compound solutions (7% RMCD used as a control) were added into each well of a 96-well black microplate, followed by addition of fluorescein. The plate was incubated at 37° C. for 15 min and then AAPH in buffer was injected into the wells. The conditions used were as follows: 0.3 s position delay, 8 s orbital shaking before each cycle with 4 mm width, 210 s cycle time, and 25 cycles. Fluorescence was measured at an excitation wavelength of 485 nm and emission of 520 nm. A standard curve was plotted and ORAC values for test compounds were obtained as mol of trolox equivalents (TE) per mol of test compound. (3b) Reducing Power The reducing power of EGCG and its derivatives (compounds 1a-1c) was determined according to Oyaizu (1986). One milliliter of test compounds (1 mM in 95% ethanol) was mixed with 2.5 ml of phosphate buffer solution (PBS, 0.2 M, pH 6.6) and 2.5 ml of a 1% solution of potassium ferricyanide, K3Fe(CN)6. The mixture was incubated at 50° C. for 20 min. […] The content was mixed well and the absorbance was recorded at 700 nm. Higher absorbance of the reaction mixture indicates greater reducing power. […] (3c) Metal Chelation The metal chelation capacity was measured following a procedure by Decker E. A. et al., J. Agric. […] The absorbance was measured afterwards at 562 nm. A blank without ferrozine was run for each compound, since the antioxidant-Fe^2+ complex gives a colour that might interfere with the absorbance reading. Metal chelation capacity was calculated using the following equation: % chelation=[1−(Abs.sample−Abs.blank)/Abs.control]×100 where, control was devoid of test compounds, while blank contained no ferrozine. (3d) DPPH Antioxidant activity of the lipophilic EGCG derivatives was ALSO evaluated as DPPH (1,1-diphenyl-2-picrylhydrazyl) radical scavenging capacity using EGCG as the reference. DPPH scavenging capacity of test compounds was determined by EPR (electron paramagnetic resonance) according to Madhujith and Shahidi (16) with slight modifications. […] The spectrum was recorded after 1 min. […]

[2] = Inhibition against UV-induced liposome oxidation; conditions: UV 254 nm, 45 min
Protocol: To prepare liposome MLV, 10 mg of egg yolk PC were dissolved in a small amount of chloroform in a round bottom flask and the solvent was removed using a rotary evaporator followed by nitrogen flush. The thin film on the inner surface of the flask was suspended in 10 ml of PBS (10 mM, pH7.4, 150 mM NaCl) by vortex and sonication, and the emulsion was then repeatedly frozen and thawed for 4 times. The liposomal MLV obtained were diluted by 90 ml of PBS, and an aliquot (750 μL) was transferred into an Eppendorf tube containing 10 μL of test compounds dissolved in ethanol and 240 μL of PBS. The content was mixed well and incubated at 37° C. for 15 min. After incubation, the mixture was exposed to UV irradiation (254 nm) for 45 min. The oxidation was detected by measuring conjugated dienes (CD) spectrophotometically at 234 nm against a blank without liposome (test compounds+PBS). Conjugated diene values were calculated as follows using blank-corrected absorbances. CD(mol/g of PC)=Abs./εLC, where ε is the absorptivity constant (29500 M^−1cm^−1), L is the length of the cuvette (1 cm) and C is the final concentration of PC (g/L). […] Discussion

[3] = Oil/water emulsion (β-carotene/linoleate) bleaching; conditions: test compounds 1 mM in ethanol, 50° C., 105 min
Protocol: Ten milligrams of β-carotene were dissolved in 10 ml of chloroform. A 1.2 ml portion of this solution was transferred into a round-bottom flask containing 40 mg of linoleic acid and 400 mg of Tween 40. A blank without β-carotene was also prepared (40 mg of linoleic acid+400 mg of Tween 40). After removal of chloroform under a nitrogen stream, 100 ml of oxygenated distilled water were added to the flask and the mixture was stirred vigorously. Aliquots (4.5 ml) of the above emulsion were transferred into a series of tubes containing 0.5 ml of test compounds (1 mM in ethanol) or ethanol as control. A mixture of blank (without β-carotene) was prepared for each sample. The tubes were vortexed and the zero time absorbance was read immediately at 470 nm. The tubes are kept in a water bath at 50° C. with gentle shaking, and measurement of absorbance was continued over a 105-min period at intervals of 15 min. Blank-corrected absorbance was obtained and plotted against time for kinetic curve of β-carotene bleaching. Antioxidant activity (AA) of test compounds in protecting β-carotene/linoleic acid oxidation was calculated using the following equation. AA %=[1−(A0−At)/(A0^o−At^o)]×100 where, A0 and At are corrected absorbance values for test samples measured at zero time and after incubation, respectively; while A0^o and At^o are corrected absorbance values for control at zero time and after incubation, respectively.

[4] = Metal chelation capacity (ferrozine); conditions: test compounds 1 mM ethanolic solution, FeCl2, ferrozine
Protocol: as §1

SMILES | ORAC [1] [mol trolox eq./mol] | % inhibition of UV-induced liposome oxidation (conjugated dienes) [2] [%] | Inhibition of β-carotene bleaching [3] | Metal chelation [4] [%]
CCCCCCCCCCCCCCCCCC(=O)Oc1cc(C(=O)OC2Cc3c(O)cc(O)cc3OC2c2cc(OC(=O)CCCCCCCCCCCCCCCCC)c(O)c(OC(=O)CCCCCCCCCCCCCCCCC)c2)cc(OC(=O)CCCCCCCCCCCCCCCCC)c1O (stereo not shown) [Compound 1a, EGCG stearate] | 51.56 | 47.59 | 16.8 ± 4.19^b % | 8.33
O=C(O[C@@H]1Cc2c(O)cc(O)cc2O[C@@H]1c1cc(O)c(O)c(O)c1)c1cc(O)c(O)c(O)c1 [EGCG, Epigallocatechin gallate, reference compound] | 14.97 | 9.53 | 7.90 ± 0.64^c % | 10.42
CCC=CCC=CCC=CCC=CCC=CCCCC(=O)Oc1cc(C(=O)OC2Cc3c(O)cc(O)cc3OC2c2cc(OC(=O)CCCC=CCC=CCC=CCC=CCC=CCC)c(O)c(OC(=O)CCCC=CCC=CCC=CCC=CCC=CCC)c2)cc(OC(=O)CCCC=CCC=CCC=CCC=CCC=CCC)c1O (stereo not shown) [Compound 1b] | 81.52 | 3.47 | 28.0 ± 0.17^a % | 35.42
CCC=CCC=CCC=CCC=CCC=CCC=CCCC(=O)Oc1cc(C(=O)OC2Cc3c(O)cc(O)cc3OC2c2cc(OC(=O)CCC=CCC=CCC=CCC=CCC=CCC=CCC)c(O)c(OC(=O)CCC=CCC=CCC=CCC=CCC=CCC=CCC)c2)cc(OC(=O)CCC=CCC=CCC=CCC=CCC=CCC=CCC)c1O (stereo not shown) [Compound 1c] | 84.70 | 16.22 | 32.1 ± 4.48^a % | 28.13

— US9018248B2, “Fatty acid derivatives of catechins and methods of their use” (Genesis Group Inc., priority 2010, dated 2015)
